We go through 21 compounds from article PMC12794062, “Repositioning a Human Kinase Platelet-Derived Growth Factor Receptor Alpha Type II Inhibitor for Malaria and Inhibition of Hemozoin Formation” (ACS Medicinal Chemistry Letters, 2025).

One data set deals with β-hematin formation. Briefly: Cell-free β-hematin inhibition assay (NP-40 detergent-based). Type of data set: biochemical. To be noted: 2 independent experiments, read-out: βH IC50 ± SD.
Data set [1] deals with heme species (free heme, hemozoin) in NF54 parasites. Briefly: Cellular heme fractionation assay. Format: cell-based, Plasmodium falciparum. To be noted: 0.5× to 3× IC50, NF54 parasites.
Another data set concerns P. falciparum NF54. Briefly: In vitro asexual blood stage antiplasmodium activity (pLDH assay), drug sensitive NF54 strain. The settings on record: mean ± SD, n ≥ 2 independent experiments.
In another data set the test system is P. falciparum K1. Put plainly: In vitro asexual blood stage antiplasmodium activity (pLDH assay), multidrug-resistant K1 strain. To be noted: mean ± SD, n ≥ 2 independent experiments.
The subject of another data set is P. falciparum Dd2. Briefly: In vitro asexual blood stage antiplasmodium activity (pLDH assay), multidrug-resistant Dd2 strain. The settings on record: Plasmodium falciparum, DD2, read-out: Pf IC50 ± SD Dd2, asexual blood stage; mean ± SD, n ≥ 2 independent experiments.
Data set [2] in a line: Solubility, miniaturised shake flask method, HPLC-DAD. Type of data set: physicochemical. To be noted: aqueous solution, 25 °C, aqueous buffer, thermodynamic from solid; pH 6.5; footnote: thermodynamic solubility, title and text: kinetic.
Data set [3] in a line: In vitro microsomal metabolic stability, human. Format: in vitro ADME. To be noted: both sexes, human liver microsomes, pH 7.4, read-out: CLint,app (h). Background: Liver microsomes are a subcellular fraction often used to study metabolism.
Data set [4] is described as follows: In vitro microsomal metabolic stability, rat. Type of data set: in vitro ADME. The settings on record: male, Sprague Dawley, rat liver microsomes, pH 7.4, read-out: CLint,app (r).
Data set [5] is described as follows: In vitro microsomal metabolic stability, mouse. Type of data set: in vitro ADME. The settings on record: male, CD1, mouse, mouse liver microsomes, pH 7.4; read-out: CLint,app (m).
The nature of data set [6]: In vitro cytotoxicity, MTT assay. The settings on record: Chinese hamster, Chinese Hamster Ovarian (CHO) cells. For orientation: Tetrazolium assays rely on reduction of a dye to a coloured formazan, in cell work by metabolically active cells.
Data set [7] concerns Chinese Hamster Ovarian (CHO) cells. Put plainly: In vitro cytotoxicity, MTT assay. The settings on record: CHO IC50/PfNF54 IC50.
Where [8] appears, read: Plasmodium falciparum, NF54, read-out: Pf IC50 ± SD NF54, asexual blood stage.
Setting [9] is: Plasmodium falciparum, K1, read-out: Pf IC50 ± SD K1, asexual blood stage.
Setting [10] is: read-out: Pf IC50 ± SD K1, asexual blood stage.

SMILES strings stand for the structures. Several values for one entry are separate records, joined by “and”; a condition that tells them apart may be missing. Equal entries are not always repeated. Where two headings read alike, the source gives them in different places. Some results are limits rather than exact numbers.

Usually IC50 stands for the concentration at which inhibition is half-maximal. Turning to `Cc1cnc(N)c(/C=C/c2cncc(C(=O)NCCc3ccc(Cl)cc3Cl)c2)c1` [Compound 4], the half-maximal inhibitory concentration (IC50) turned out to be 13000 ± 2000 nM in the data set with β-hematin formation, 220 ± 30 nM in the data set with P. falciparum NF54 (setting [8]) and 590 ± 40 nM with P. falciparum K1 (setting [9]). Further, the “free heme, dose response” value in [1] is recorded as “dose-dependent increase in free heme”. The “hemozoin, dose response” value in data set [1] is “decrease in hemozoin”.
With `Cc1ccc(N)c(/C=C/c2cncc(C(=O)NCCc3ccc(Cl)cc3Cl)c2)c1` [Compound 5], the results for the IC50 in the data set on β-hematin formation and in the data set on P. falciparum NF54 (setting [8]) were 18400 ± 200 nM and 2600 ± 1470 nM, respectively.
As for `Cc1cncc(/C=C/c2cncc(C(=O)NCCc3ccc(Cl)cc3Cl)c2)c1` [Compound 6], the IC50 in the data set with β-hematin formation amounted to 26000 ± 7000 nM; with P. falciparum NF54 (setting [8]), 1180 ± 380 nM.
Take `Nc1ncccc1/C=C/c1cncc(C(=O)NCCc2ccc(Cl)cc2Cl)c1` [Compound 7]: the IC50 was determined as 17900 ± 200 nM in the data set with β-hematin formation, 340 ± 240 nM with P. falciparum NF54 (setting [8]), 960 ± 390 nM in the data set with P. falciparum K1 (setting [9]) and 5470 ± 540 nM in the data set with P. falciparum Dd2.
Take `Nc1ccc(/C=C/c2cncc(C(=O)NCCc3ccc(Cl)cc3Cl)c2)cn1` [Compound 8]: the IC50 in the data set on P. falciparum NF54 (setting [8]) amounted to 510 ± 420 nM; in the data set on P. falciparum Dd2, 2210 ± 1160 nM.
For the compound `Nc1cncc(/C=C/c2cncc(C(=O)NCCc3ccc(Cl)cc3Cl)c2)c1` [Compound 9], the IC50 with P. falciparum NF54 (setting [8]) was 480 ± 260 nM; in the data set with P. falciparum K1 (setting [9]) it was more than 6000 nM.
For the compound `O=C(NCCc1ccc(Cl)cc1Cl)c1cncc(/C=C/c2cccnc2)c1` [Compound 10], the IC50 with β-hematin formation is 15900 ± 100 nM; with P. falciparum NF54 (setting [8]) it was 2630 ± 2270 nM.
Regarding `O=C(NCCc1ccc(Cl)cc1Cl)c1cncc(/C=C/c2ccccc2)c1` [Compound 11], the half-maximal inhibitory concentration (IC50) with β-hematin formation turned out to be 22000 ± 2000 nM; in the data set with P. falciparum NF54 (setting [8]), 4280 nM; with P. falciparum NF54 (read-out: Pf IC50 ± SD NF54, asexual blood stage), 4820 ± 1550 nM.
Turning to `Nc1ccncc1/C=C/c1cncc(C(=O)NCCc2ccc(Cl)cc2Cl)c1` [Compound 12], the IC50 was determined as 140 nM with P. falciparum NF54 (setting [8]) and 920 ± 50 nM in the data set on P. falciparum Dd2.
`Nc1ncncc1/C=C/c1cncc(C(=O)NCCc2ccc(Cl)cc2Cl)c1` [Compound 13]: the values for the IC50 in the data set with P. falciparum NF54 (setting [8]) and in the data set on P. falciparum Dd2 were 480 ± 350 nM and 1400 ± 50 nM, respectively.
Turning to `Cc1cnc(N)c(/C=C/c2cncc(C(=O)NCCc3ccc(Cl)cc3)c2)c1` [Compound 18], the IC50 is 15000 ± 2000 nM in the data set with β-hematin formation, less than 1000 nM in the data set with P. falciparum K1 (setting [9]) and 720 ± 430 nM with P. falciparum K1 (setting [10]).
Regarding `Cc1cnc(N)c(/C=C/c2cncc(C(=O)NCCc3ccccc3)c2)c1` [Compound 19], the IC50 in the data set with P. falciparum NF54 (setting [8]) is 320 ± 60 nM; in the data set with P. falciparum K1 (setting [9]), less than 1000 nM; with P. falciparum K1 (setting [10]), 580 ± 160 nM; in the data set on P. falciparum Dd2, less than 1000 nM.
As for `Cc1cnc(N)c(/C=C/c2cncc(C(=O)NCc3ccc(Cl)cc3Cl)c2)c1` [Compound 20], the IC50 in the data set with P. falciparum NF54 (setting [8]) turned out to be 160 ± 70 nM; with P. falciparum K1 (setting [9]), 250 ± 120 nM; with P. falciparum Dd2 it was 190 ± 110 nM.
As to `Cc1cnc(N)c(/C=C/c2cncc(C(=O)NCc3cc(Cl)cc(Cl)c3)c2)c1` [Compound 21], the IC50 in the data set on β-hematin formation was < 10000 nM and 5000 nM; in the data set on P. falciparum NF54 (setting [8]) it was 90 nM; in the data set with P. falciparum K1 (setting [9]), 460 ± 170 nM.
For the compound `Cc1cnc(N)c(/C=C/c2cncc(C(=O)Nc3ccc(Cl)cc3Cl)c2)c1` [Compound 22], the IC50 in the data set on β-hematin formation is < 10000 nM and 8000 nM; in the data set with P. falciparum NF54 (setting [8]) it was 200 ± 60 nM; in the data set on P. falciparum Dd2, 350 ± 50 nM.
As usually defined, the solubility (thermodynamic) is solubility found after equilibrating the solid with the medium. As for `Cc1cnc(N)c(/C=C/c2cncc(C(=O)Nc3ccc(Cl)cc3)c2)c1` [Compound 23], in data set [2], the solubility (thermodynamic) at 20 h was less than 5 µM. Further, the CLint scaled at 1 µM in data set [3] came out at 64 mL/min/kg; in [4], 62 mL/min/kg; in [5], 153 mL/min/kg. Besides, the values for the IC50 (in [6]; in the data set with P. falciparum NF54 (setting [8]); with P. falciparum Dd2) were 21000 nM, 140 ± 20 nM and 190 nM, respectively. Moreover, the “selectivity index [SI]” value in data set [7] is on record as 150.
For the compound `Cc1cnc(N)c(/C=C/c2cncc(C(=O)NCCc3ccncc3)c2)c1` [Compound 24], the values for the IC50 in the data set on β-hematin formation and with P. falciparum NF54 (setting [8]) were 62000 ± 5000 nM and 2060 ± 690 nM, respectively.
Regarding `Cc1cnc(N)c(/C=C/c2cncc(C(=O)NCCC3CCNCC3)c2)c1` [Compound 25], the IC50 was 232000 ± 27000 nM in the data set with β-hematin formation and more than 6000 nM with P. falciparum NF54 (setting [8]).
Consider `Cc1cnc(N)c(/C=C/c2cccc(C(=O)NCCc3ccc(Cl)cc3Cl)n2)c1` [Compound 26], for which the values for the IC50 in the data set on β-hematin formation, in the data set with P. falciparum NF54 (setting [8]) and in the data set on P. falciparum Dd2 were 27000 ± 7000 nM, 780 ± 30 nM and 3190 ± 380 nM, respectively.
As for `Cc1cnc(N)c(/C=C/c2cccc(C(=O)NCCc3ccc(Cl)cc3Cl)c2)c1` [Compound 27], the IC50 with β-hematin formation worked out at 13000 ± 4000 nM; in the data set on P. falciparum NF54 (setting [8]), 620 ± 70 nM; in the data set on P. falciparum K1 (setting [9]), 1650 ± 270 nM.
On to `Cc1cnc(N)c(/C=C/c2cscc2C(=O)NCCc2ccc(Cl)cc2Cl)c1` [Compound 28], for which the IC50 was found to be 18000 ± 7000 nM with β-hematin formation, 590 ± 350 nM in the data set on P. falciparum NF54 (setting [8]) and 2360 ± 400 nM in the data set with P. falciparum Dd2.
